Data reported in patent US10683296B2, “TLR7 agonist trifluoroacetate salt and crystalline form B thereof, preparation methods and uses” (CHIA TAI TIANQING PHARMACEUTICAL GROUP CO., LTD., priority 2016, dated 2020).

How the values were obtained:
[1] = Stability tests of crystal form B (high temperature, high humidity, light); assay type: physicochemical; conditions: general statement; no data of Examples 2-4 printed
Experimental: The crystal form B prepared in Example 1 was tested in the accelerated test under high temperature conditions for stability in accordance with Guidelines for the Stability Test of Pharmaceutical Ingredients and Pharmaceutical Preparations (Chinese Pharmacopoeia 2010 Appendix XIXC).
The crystal form B was placed in an open-clean container at 60° C. The samples were taken for test on day 10, day 20 and day 30, respectively. The results were compared with the initial test result on day 0.
The crystal form B prepared in Example 1 was tested in the accelerated test under high humidity conditions for stability in accordance with Guidelines for the Stability Test of Pharmaceutical Ingredients and Pharmaceutical Preparations (Chinese Pharmacopoeia 2010 Appendix XIXC).
The crystal form B was subjected to an accelerated test in a constant temperature and humidity vessel under the conditions of 40° C./75% humidity (open). The samples were taken for test on day 30, day 60 and day 90, respectively. The results were compared with the initial test result on day 0.
The crystal form B prepared in Example 1 under light conditions was tested for stability in accordance with Guidelines for the Stability Test of Pharmaceutical Ingredients and Pharmaceutical Preparations (Chinese Pharmacopoeia 2010 Appendix XIXC).
The crystal form B was placed in an illumination environment of 5000 Lx±500 Lx. […]

[2] = tested on: human peripheral blood mononuclear cells (PBMC); test: Peripheral blood mononuclear cell cytokine stimulating test; assay type: cell-based; conditions: for TNF-α MEC / IFN-α MEC: human PBMC, 24 h, CBA flow cytometry; for IFN-α MEC: lowest drug concentration stimulating the production of 30 pg/mL of IFN-α
Experimental: The purpose of this example is to determine the expression level of cytokines 24 h after stimulation to human peripheral blood mononuclear cells (PBMC) with the compound of formula I.
The cell supernatant was assayed without dilution and the levels of IFN-α were directly determined. The compound of formula was firstly formulated into 20 mM DMSO stock solution and was gradient diluted with cell medium in 10-fold with the total number of 11 diluting points. The compounds in 9 diluting points (the highest concentration was 200 μmol/L) were added into 96-well plate with 50 μL in each well. Fresh human peripheral blood mononuclear cells were inoculated, with 150 μL in each well containing 450,000 cells. The cell culture plate was incubated in an incubator at 37° C., 5% CO2 for 24 h. After incubation, the culture plate was centrifuged at 1200 rpm for 5 min and the supernatant was collected and stored at −20° C. for determination. The determination of cytokine was performed using Cytometric Bead Array (CBA) of BD-Pharmingen on flow cytometer. Using the above determining method, the lowest drug concentration stimulating the production of 30 pg/mL of IFN-α was designated as the MEC value in the cytokine stimulating test.

[3] = molecular target: T1, Toll-like receptor 7 (HEK-blue hTLR7 cell) (Homo sapiens, UniProt Q9NYK1); test: Toll-like receptor 7 in vitro receptor binding activity screen (HEK-blue hTLR7 cell, alkaline phosphatase reporter); assay type: cell-based; conditions: versus control GS-9620
T1 construct: host or cells: HEK-blue hTLR7 cell (HEK293-derived reporter line)
T1 sequence (Q9NYK1 27-1049): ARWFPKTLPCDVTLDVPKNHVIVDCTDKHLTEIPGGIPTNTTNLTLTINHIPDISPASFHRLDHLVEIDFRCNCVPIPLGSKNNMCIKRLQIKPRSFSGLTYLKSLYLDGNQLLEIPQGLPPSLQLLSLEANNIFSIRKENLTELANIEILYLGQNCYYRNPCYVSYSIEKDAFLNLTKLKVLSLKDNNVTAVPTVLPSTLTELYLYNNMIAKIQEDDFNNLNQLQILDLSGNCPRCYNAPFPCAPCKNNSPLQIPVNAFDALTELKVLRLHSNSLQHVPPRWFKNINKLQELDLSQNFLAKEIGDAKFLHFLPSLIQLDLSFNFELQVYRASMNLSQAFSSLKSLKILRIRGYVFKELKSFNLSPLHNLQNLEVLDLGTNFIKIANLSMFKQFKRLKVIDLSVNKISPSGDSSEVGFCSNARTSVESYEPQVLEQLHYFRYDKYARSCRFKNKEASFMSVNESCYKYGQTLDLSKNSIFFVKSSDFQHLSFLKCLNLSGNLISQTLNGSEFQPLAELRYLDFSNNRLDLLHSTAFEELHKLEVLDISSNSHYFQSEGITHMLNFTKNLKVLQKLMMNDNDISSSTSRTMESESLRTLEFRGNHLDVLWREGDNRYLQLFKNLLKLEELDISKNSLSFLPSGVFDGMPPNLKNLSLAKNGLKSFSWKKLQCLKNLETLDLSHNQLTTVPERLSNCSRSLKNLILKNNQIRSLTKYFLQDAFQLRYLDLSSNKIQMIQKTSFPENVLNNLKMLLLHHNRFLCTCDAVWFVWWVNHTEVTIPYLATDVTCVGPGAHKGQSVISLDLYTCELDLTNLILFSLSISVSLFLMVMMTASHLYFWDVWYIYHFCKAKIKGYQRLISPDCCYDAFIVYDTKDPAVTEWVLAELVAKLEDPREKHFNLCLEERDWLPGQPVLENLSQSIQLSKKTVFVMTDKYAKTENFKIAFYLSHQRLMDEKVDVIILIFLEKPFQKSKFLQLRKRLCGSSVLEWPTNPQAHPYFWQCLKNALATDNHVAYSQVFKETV
Experimental: (§1) • HEK-blue hTLR7 cell and HEK-blue hTLR8 cell (available from InvivoGen) • DMEM medium • heat inactivated fetal bovine serum • Anti Mycoplasma reagent Normocin™ • bleomycin • blasticidin
(§2) The structures of GS-9620 and R848 used are as follows, wherein the preparation of GS-9620 could be referred to the process disclosed in US20100143301; R848 was commercially available from ABGENT (IMG-2208, specification: 0.5 mg).
(§3) The compounds were gradient diluted with DMSO in 3-fold using liquid work station POD starting at a concentration of 10 mmol/L and 10 points were diluted (2nd column to 11th column, and each point was duplicated). At 12th column, 1 μL of 5 mg/mL positive compound R848 was added as positive control; and at 1st column, 1 μL of DMSO was added as negative control. Each well contained 1 μL of DMSO. • 2. The cells in culture flask were collected and the cell density was diluted to 250,000 cells/mL. • 3. 200 μL (50,000 cells/well) of cell suspension was added into prepared compound plate and the final concentration of DMSO in each well was 0.5%. • 4. The culture plates containing cells and the compounds were incubated in CO2 incubator for 24 h at 37° C., 5% CO2. • 5. […] After 1 h, the content of alkaline phosphatase in 20 μL of supernatant was determined using Microplate Reader OD650. • 7. […]

[4] = molecular target: T2, Toll-like receptor 8 (HEK-blue hTLR8 cell) (Homo sapiens, UniProt Q9NR97); test: Toll-like receptor 8 in vitro receptor binding activity screen (HEK-blue hTLR8 cell, alkaline phosphatase reporter); assay type: cell-based; conditions: versus control GS-9620
T2 construct: host or cells: HEK-blue hTLR8 cell (HEK293-derived reporter line)
T2 sequence (Q9NR97 27-1041): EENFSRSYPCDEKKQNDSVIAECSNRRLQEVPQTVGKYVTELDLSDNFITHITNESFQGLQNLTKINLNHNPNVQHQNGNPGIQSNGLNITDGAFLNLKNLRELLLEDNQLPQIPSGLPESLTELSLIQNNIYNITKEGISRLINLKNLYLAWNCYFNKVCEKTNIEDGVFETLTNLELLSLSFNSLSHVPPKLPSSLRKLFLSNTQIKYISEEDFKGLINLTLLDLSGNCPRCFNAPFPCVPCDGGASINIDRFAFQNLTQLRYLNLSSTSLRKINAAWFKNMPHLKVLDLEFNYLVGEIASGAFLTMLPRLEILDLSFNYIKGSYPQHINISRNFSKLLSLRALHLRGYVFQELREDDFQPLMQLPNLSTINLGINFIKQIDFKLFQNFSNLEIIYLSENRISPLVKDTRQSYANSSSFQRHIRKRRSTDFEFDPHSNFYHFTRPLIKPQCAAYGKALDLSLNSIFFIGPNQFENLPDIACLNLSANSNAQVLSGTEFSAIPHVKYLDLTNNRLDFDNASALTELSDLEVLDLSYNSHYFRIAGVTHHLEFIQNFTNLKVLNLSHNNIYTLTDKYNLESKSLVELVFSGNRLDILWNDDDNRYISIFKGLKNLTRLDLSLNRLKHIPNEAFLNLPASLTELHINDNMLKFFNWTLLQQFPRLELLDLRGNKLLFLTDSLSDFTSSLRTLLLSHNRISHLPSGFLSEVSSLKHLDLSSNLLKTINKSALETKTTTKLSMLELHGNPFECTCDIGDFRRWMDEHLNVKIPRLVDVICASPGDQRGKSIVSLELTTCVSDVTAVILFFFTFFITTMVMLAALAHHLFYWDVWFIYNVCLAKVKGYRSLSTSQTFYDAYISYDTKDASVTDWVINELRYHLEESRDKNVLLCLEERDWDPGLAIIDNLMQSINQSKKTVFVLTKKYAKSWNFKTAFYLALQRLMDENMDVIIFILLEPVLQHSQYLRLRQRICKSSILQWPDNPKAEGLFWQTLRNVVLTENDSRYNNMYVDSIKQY
Experimental: as §1, §2, §3

Row | Compound | stability of the crystal form [1] | TNF-α MEC [2] [nM] | IFN-α MEC [2] [nM] | in vitro receptor binding activity to Toll-like receptor 7 compared with the control GS-9620 [3] | in vitro receptor binding activity to Toll-like receptor 8 compared with the control GS-9620 [4] | TNF-α inducing activity compared with the control GS-9620 ([2]; versus control GS-9620) | in vitro IFN-α inducing activity of PBMCs compared with the control GS-9620 ([2]; versus control GS-9620)
1 | CCCCOc1nc(N)c2[nH]cc(Cc3ccc(CN4CCCC4)cc3)c2n1.O=C(O)C(F)(F)F [Crystal Form B of Trifluoroacetate of 2-butoxy-7-(4-(pyrrolidin-1-ylmethyl)benzyl)-5H-pyrrolo[3,2-d]pyrimidin-4-amine] | good stability |  |  |  |  |  | 
2 | CCCCOc1nc(N)c2c(n1)N(Cc1cccc(CN3CCCC3)c1)CC(=O)N2 [GS-9620, reference compound] |  | 500 | 50 |  |  |  | 
3 | CCCCOc1nc(N)c2[nH]cc(Cc3ccc(CN4CCCC4)cc3)c2n1 [The compound of formula I, 2-butoxy-7-(4-(pyrrolidin-1-ylmethyl)benzyl)-5H-pyrrolo[3,2-d]pyrimidin-4-amine] |  | 500 | 5 | higher | lower | comparable | better
